For 3 compounds, binding, Kb and ΔTm results are on record in publication PMC3517606 (2012).

In experiment [1] the test system is ds26 (DNA, duplex) CAATCGGATCGAATTCGATCCGATTG
As to the kind of experiment: emission spectroscopy. Conditions: 100 mM KCl; 10 mM Tris-HCl, pH 7.4; 4 µM Ru, 8 µM DNA.

The test system of experiment [2] is HTG21 (DNA, G4) GGGTTAGGGTTAGGGTTAGGG
As to the kind of experiment: absorption titration. The following applies: 100 mM NaCl; 10 mM Tris-HCl, 25 °C.

The test system is the same in experiment [3]. As to the kind of experiment: luminescence titration, Scatchard. Conditions: 100 mM KCl; 10 mM Tris-HCl, pH 7.4, 20 °C; 4 µM Ru; DNA concentration in base pairs.
For experiment [4], the system named is F21T (DNA, G4) GGGTTAGGGTTAGGGTTAGGG
The experiment is described as follows: FRET melting. The following applies: 60 mM KCl; 10 mM Tris-HCl, pH 7.4; 1 µM DNA, [Ru]:[DNA] = 2:1.

As to `Oc1ccc(-c2nc3c4cccnc4c4ncccc4c3[nH]2)cc1.[Ru+2].c1cnc2c(c1)ccc1cccnc12.c1cnc2c(c1)ccc1cccnc12` [Δ-Ru], in experiment [1], the binding entry is listed as “weak”. In addition, the Kb in experiment [2] stood at 8.3e+06 M⁻¹; in experiment [3], 720000 M⁻¹. In experiment [4], the thermal shift (ΔTm) was 15.0 °C.

For the compound `Oc1ccc(-c2nc3c4cccnc4c4ncccc4c3[nH]2)cc1.[Ru+2].c1cnc2c(c1)ccc1cccnc12.c1cnc2c(c1)ccc1cccnc12` [Λ-Ru], in experiment [1], the binding entry is given as “weak”. Besides, the Kb in experiment [2] is 8.9e+06 M⁻¹; in experiment [3] it was 930000 M⁻¹. Moreover, the ΔTm in experiment [4] stood at 22.7 °C.

For the compound `Oc1ccc(-c2nc3c4cccnc4c4ncccc4c3[nH]2)cc1.[Ru+2].c1cnc2c(c1)ccc1cccnc12.c1cnc2c(c1)ccc1cccnc12` [Λ/Δ-Ru], the binding entry in experiment [1] is given as “weak”. The compound also returned a Kb in experiment [3] of 910000 M⁻¹. The ΔTm in experiment [4] was 18.4 °C.
